Test results published in EP2118137B1, “PEPTIDES AND POLYPEPTIDES WITH IMPROVED STABILITY USEFUL IN THE REGENERATION OF THE NERVOUS SYSTEM” (Neuronax, priority 2006, dated 2011).
“Also recorded” adds a separate entry of the source. Square brackets hold non-standard residues; d marks the D form. Peptide text beside a SMILES is read from it. 2Nal = N[C@@H](Cc1ccc2ccccc2c1)C(=O)O; Lys(iPr) = CC(C)NCCCC[C@H](N)C(=O)O; Abu = CC[C@H](N)C(=O)O

What was measured:
[1] = tested on: cellules de la lignée B104; assay: Morphological differentiation and neurite outgrowth of B104 cells; type: cell-based, rat
From the text: L'activité biologique des différents peptides a été analysée par ajout de chacun des peptides dans des cultures de cellules nerveuses et suivi des modifications morphologiques de ces cellules.
Des cellules de la lignée B104, issues de neuroblastome de rat, sont cultivées à raison de 1000 cellules par puits dans des plaques de 48 puits préalablement recouverts de poly-lysine (fourni par Sigma-Aldrich), dans du milieu de Eagle modifié par Dubelco (DMEM), supplémenté de glutamine et d'antibiotique, et additionné de 10% de sérum de veau foetal pendant la phase d'adhésion. Le milieu est ensuite remplacé par un nouveau milieu DMEM ne contenant pas de sérum et permettant la différenciation des cellules. Après traitement, c'est-à-dire après ajout du composé à tester, les cellules sont maintenues en culture à 37°C sous une atmosphère à 10% de CO2. L'évolution de la morphologie cellulaire et la prolifération sont suivies par examen microscopique en contraste de phase chaque jour sur la période de culture. La différenciation cellulaire, et en particulier l'effet sur la pousse neuritique, est alors mesurée.

[2] = Stability of peptides in aqueous solution (HPLC purity on storage); type: physicochemical; conditions: 22°C, 50% relative humidity, HPLC after 0, 3, 7, 11 and 22 days
Protocol: Les peptides synthétiques ont été mis en solution aqueuse (1,5 mg de peptide dissout dans 1000 µL d'eau stérile).
Leur pureté a été testée par HPLC, elle était d'au moins 97,0%.
Ces solutions ont ensuite été diluées : à 0,4 mL de chacune de ces solutions, on a ajouté 1,1 mL d'eau purifiée.
Ces solutions ont été placées en étuve à 22°C et 50% d'humidité relative, et analysées après : 0, 3, 7, 11 et 22 jours.
L'analyse a été faite par HPLC en gradient de phase inverse à une concentration de 0,4 mg/mL, avec les paramètres suivants : - cartouche Symétrie RP18 (Waters) 125 x 4,6 mm - phases mobiles A : H2O + TFA 0.1 % (w/v) B : Acétonitrile + TFA 0.1 % (v/v) - détection : 210 nm - débit : 1 ml/min - volume d'injection : 20 µl de solution (soit 8 µg de peptide) - gradient : […]
Les échantillons ont été placés en étuve à 22 °C, 50 % d'humidité relative et analysés à : 0 jours, 3 jours, 7 jours, 11 jours et 22 jours.
Les résultats sont présentés dans le Tableau 1 et sur la Figuré 1.
Le paramètre « TR » exprime le temps de rétention du peptide en minutes dans la colonne de HPLC.
Le paramètre « Pureté » exprimé la pureté du peptide en % tel que déterminé par HPLC.
La colonne « Impuretés : TR est % » indique pour le pic supplémentaire le plus intense, le temps de rétention en minutes et le pourcentage en masse. La colonne SEQ indique le numéro de la séquence (SEQ ID N° X).

[3] = tested on: souris avec lésion ischémique partielle; assay: Mouse partial ischemic spinal cord lesion, functional evaluation of walking; type: in vivo; conditions: partial ischemic lesion causing paralysis
From the text: Une première caractérisation in vivo des phénomènes de repousse neuritique et de survie neuronale a été effectuée sur deux modèles d'animaux différents dans le cas du trauma de la moelle épinière (réparation de la moelle épinière après rupture).

cellules B104 = conditions: cited from earlier work
cellules nerveuses = conditions: added daily to the culture medium at its optimal dose; cited from earlier work

CC[C@H](NC(=O)[C@H](CO)NC(=O)[C@H](CO)NC(=O)[C@H](Cc1c[nH]c2ccccc12)NC(=O)CNC(=O)[C@H](CO)NC(=O)[C@@H](N)Cc1c[nH]c2ccccc12)C(=O)N[C@@H](CO)C(=O)N[C@@H](CCCNC(=N)N)C(=O)N[C@@H](CO)C(N)=O [NH2-W-S-G-W-S-S-Abu-S-R-S-NH2] (H-WSGWSS[Abu]SRS-NH2)
induction de la pousse neuritique ([1]; B104 cells): s'est montré actif

CC[C@H](NC(=O)[C@H](CO)NC(=O)[C@H](CO)NC(=O)[C@H](Cc1c[nH]c2ccccc12)NC(=O)CNC(=O)[C@H](CO)NC(=O)[C@@H](N)Cc1c[nH]c2ccccc12)C(=O)N[C@@H](CO)C(=O)N[C@@H](CCCNC(=N)N)C(=O)N[C@@H](CO)C(=O)O [SEQ ID N°4, W-S-G-W-S-S-Abu-S-R-S] (H-WSGWSS[Abu]SRS-OH)
stabilité en solution aqueuse [2]: stabilité en solution améliorée

CC[C@H](NC(=O)[C@H](CCCNC(=N)N)NC(=O)[C@H](CO)NC(=O)[C@H](CS)NC(=O)[C@H](CO)NC(=O)[C@H](CO)NC(=O)[C@H](Cc1c[nH]c2ccccc12)NC(=O)CNC(=O)[C@H](CO)NC(=O)[C@@H](N)Cc1c[nH]c2ccccc12)C(=O)O [SEQ ID N°5, W-S-G-W-S-S-C-S-R-Abu] (H-WSGWSSCSR[Abu]-OH)
stabilité en solution aqueuse [2]: stabilité en solution améliorée

CC(C)NCCCC[C@H](NC(=O)[C@H](CO)NC(=O)[C@H](CS)NC(=O)[C@H](CO)NC(=O)[C@H](CO)NC(=O)[C@H](Cc1c[nH]c2ccccc12)NC(=O)CNC(=O)[C@H](CO)NC(=O)[C@@H](N)Cc1c[nH]c2ccccc12)C(=O)N[C@@H](CO)C(=O)O [SEQ ID N°6, W-S-G-W-S-S-C-S-K-(iPr)-S] (H-WSGWSSCS[Lys(iPr)]S-OH)
stabilité en solution aqueuse [2]: stabilité en solution améliorée

CC[C@H](NC(=O)[C@@H](N)Cc1c[nH]c2ccccc12)C(=O)NCC(=O)N[C@@H](Cc1c[nH]c2ccccc12)C(=O)N[C@@H](CO)C(=O)N[C@@H](CO)C(=O)N[C@@H](CS)C(=O)N[C@@H](CO)C(=O)N[C@@H](CCCNC(=N)N)C(=O)N[C@@H](CO)C(=O)O [SEQ ID N°7, W-Abu-G-W-S-S-C-S-R-S] (H-W[Abu]GWSSCSRS-OH)
stabilité en solution aqueuse [2]: stabilité en solution améliorée

N=C(N)NCCC[C@H](NC(=O)[C@H](CO)NC(=O)[C@H](CS)NC(=O)[C@H](CO)NC(=O)[C@H](CO)NC(=O)[C@H](Cc1c[nH]c2ccccc12)NC(=O)CNC(=O)[C@H](CO)NC(=O)[C@@H](N)Cc1ccc2ccccc2c1)C(=O)N[C@@H](CO)C(=O)O [SEQ ID N°8, L-Nal2-S-G-W-S-S-C-S-R-S] (H-[2Nal]SGWSSCSRS-OH)
stabilité en solution aqueuse [2]: stabilité en solution améliorée

W-S-G-W-S-S-C-S-R-S-C-G (WSGWSSCSRSCG) [SEQ ID N°1, séquence la plus représentative d'un motif TSR de la SCO-spondine]
stabilité en solution aqueuse [2]: se dégrade plus vite; also recorded: diminue en solution aqueuse avec le temps
réponse des cellules B 104 (effet dose-réponse) [1]: proportionnelle à la concentration de peptide
étalement du corps cellulaire ([1]; 24 hours after adding the peptides): cet effet est présent
incidence du remplacement de l'extrémité carboxyterminale par une extrémité aminée sur l'effet du peptide ([1]; B104 cells): aucune incidence
nombre de neurites par cellule ([1]; after 3 days of culture): effet inducteur de la pousse neuritique
pousses neuritiques ([1]; after 3 days of culture): pousses neuritiques importantes
activité régénératrice (évaluation fonctionnelle au niveau de la marche) [3]: activité régénératrice
pousses neuritiques (cellules B104; after three days of culture, without serum): pousses neuritiques importantes
différenciation cellulaire (cellules B104): induit la pousse neuritique et l'agrégation cellulaire
nombre de neurites (cellules B104): induit une augmentation
taille du neurite le plus long (cellules B104): induit une augmentation
regroupements cellulaires (agrégation) (cellules B104; from 3 or 4 days of culture): apparition de regroupements de ces cellules B 104 différenciées
effet sur la pousse neuritique (dose) (cellules B104; increasing range of peptide concentrations): dépendant de la dose de peptide utilisée
effet du peptide avec ajout quotidien (cellules nerveuses): l'effet observé était accentué
